Assay: xn = mol fraction of the nth substance listed
Settings: Liquid, Vibrating tube method

CCCCCCCCCC [decane] + CCCCCCC
Settings | mass density [kg/m3]
363.02 K, 16000 kPa, x2 = 0.777 | 658.24
363.02 K, 17000 kPa, x2 = 0.5219 | 673.01
363.02 K, 17000 kPa, x2 = 0.777 | 659.41
363.02 K, 18000 kPa, x2 = 0.5219 | 674.09
363.02 K, 18000 kPa, x2 = 0.777 | 660.5
363.02 K, 19000 kPa, x2 = 0.5219 | 675.09
363.02 K, 19000 kPa, x2 = 0.777 | 661.57
363.02 K, 20000 kPa, x2 = 0.5219 | 676.07
363.02 K, 20000 kPa, x2 = 0.777 | 662.62
363.02 K, 21000 kPa, x2 = 0.5219 | 677.05
363.02 K, 21000 kPa, x2 = 0.777 | 663.64
363.02 K, 22000 kPa, x2 = 0.5219 | 677.98
363.02 K, 22000 kPa, x2 = 0.777 | 664.64
363.02 K, 23000 kPa, x2 = 0.5219 | 678.94
363.02 K, 23000 kPa, x2 = 0.777 | 665.63
363.02 K, 24000 kPa, x2 = 0.5219 | 679.87
363.02 K, 24000 kPa, x2 = 0.777 | 666.6
363.02 K, 25000 kPa, x2 = 0.5219 | 680.76
363.02 K, 25000 kPa, x2 = 0.777 | 667.53
363.03 K, 1000 kPa, x2 = 0.0531 | 674.85
363.03 K, 1000 kPa, x2 = 0.952 | 627.08
363.03 K, 2000 kPa, x2 = 0.0531 | 676.04
363.03 K, 2000 kPa, x2 = 0.952 | 628.62
363.03 K, 3000 kPa, x2 = 0.0531 | 677.23
363.03 K, 3000 kPa, x2 = 0.952 | 630.14
363.03 K, 4000 kPa, x2 = 0.0531 | 678.38
363.03 K, 4000 kPa, x2 = 0.952 | 631.64
363.03 K, 5000 kPa, x2 = 0.0531 | 679.52
363.03 K, 5000 kPa, x2 = 0.952 | 633.12
363.03 K, 6000 kPa, x2 = 0.0531 | 680.65
363.03 K, 6000 kPa, x2 = 0.952 | 634.56
363.03 K, 7000 kPa, x2 = 0.0531 | 681.75
363.03 K, 7000 kPa, x2 = 0.952 | 635.98
363.03 K, 8000 kPa, x2 = 0.0531 | 682.84
363.03 K, 8000 kPa, x2 = 0.952 | 637.36
363.03 K, 9000 kPa, x2 = 0.0531 | 683.92
363.03 K, 9000 kPa, x2 = 0.952 | 638.71
363.03 K, 10000 kPa, x2 = 0.0531 | 684.98
363.03 K, 10000 kPa, x2 = 0.952 | 640.03
363.03 K, 11000 kPa, x2 = 0.0531 | 686.02
363.03 K, 11000 kPa, x2 = 0.952 | 641.33
363.03 K, 12000 kPa, x2 = 0.0531 | 687.05
363.03 K, 12000 kPa, x2 = 0.952 | 642.61
363.03 K, 13000 kPa, x2 = 0.0531 | 688.07
363.03 K, 13000 kPa, x2 = 0.952 | 643.86
363.03 K, 14000 kPa, x2 = 0.0531 | 689.07
363.03 K, 14000 kPa, x2 = 0.952 | 645.09
363.03 K, 15000 kPa, x2 = 0.0531 | 690.05
363.03 K, 15000 kPa, x2 = 0.952 | 646.3
363.03 K, 16000 kPa, x2 = 0.0531 | 691.03
363.03 K, 16000 kPa, x2 = 0.952 | 647.49
363.03 K, 17000 kPa, x2 = 0.0531 | 691.98
363.03 K, 17000 kPa, x2 = 0.952 | 648.66
363.03 K, 18000 kPa, x2 = 0.0531 | 692.93
363.03 K, 18000 kPa, x2 = 0.952 | 649.8
363.03 K, 19000 kPa, x2 = 0.0531 | 693.87
363.03 K, 19000 kPa, x2 = 0.952 | 650.92
363.03 K, 20000 kPa, x2 = 0.0531 | 694.79
363.03 K, 20000 kPa, x2 = 0.952 | 652.02
363.03 K, 21000 kPa, x2 = 0.0531 | 695.7
363.03 K, 21000 kPa, x2 = 0.952 | 653.1
363.03 K, 22000 kPa, x2 = 0.0531 | 696.6
363.03 K, 22000 kPa, x2 = 0.952 | 654.16
363.03 K, 23000 kPa, x2 = 0.0531 | 697.47
363.03 K, 23000 kPa, x2 = 0.952 | 655.2
363.03 K, 24000 kPa, x2 = 0.0531 | 698.37
363.03 K, 24000 kPa, x2 = 0.952 | 656.21
363.03 K, 25000 kPa, x2 = 0.0531 | 699.21
363.03 K, 25000 kPa, x2 = 0.952 | 657.21
363.06 K, 1000 kPa, x2 = 0.2594 | 666.7
363.06 K, 2000 kPa, x2 = 0.2594 | 667.89
363.06 K, 3000 kPa, x2 = 0.2594 | 669.1
363.06 K, 4000 kPa, x2 = 0.2594 | 670.27
363.06 K, 5000 kPa, x2 = 0.2594 | 671.44
363.06 K, 6000 kPa, x2 = 0.2594 | 672.61
363.06 K, 7000 kPa, x2 = 0.2594 | 673.77
363.06 K, 8000 kPa, x2 = 0.2594 | 674.91
363.06 K, 9000 kPa, x2 = 0.2594 | 676.05
363.06 K, 10000 kPa, x2 = 0.2594 | 677.17
363.06 K, 11000 kPa, x2 = 0.2594 | 678.26
363.06 K, 12000 kPa, x2 = 0.2594 | 679.34
363.06 K, 13000 kPa, x2 = 0.2594 | 680.41
363.06 K, 14000 kPa, x2 = 0.2594 | 681.46
363.06 K, 15000 kPa, x2 = 0.2594 | 682.5
363.06 K, 16000 kPa, x2 = 0.2594 | 683.52
363.06 K, 17000 kPa, x2 = 0.2594 | 684.53
363.06 K, 18000 kPa, x2 = 0.2594 | 685.52
363.06 K, 19000 kPa, x2 = 0.2594 | 686.5
363.06 K, 20000 kPa, x2 = 0.2594 | 687.43
363.06 K, 21000 kPa, x2 = 0.2594 | 688.35
363.06 K, 22000 kPa, x2 = 0.2594 | 689.23
363.06 K, 23000 kPa, x2 = 0.2594 | 690.14
363.06 K, 24000 kPa, x2 = 0.2594 | 691.03
363.06 K, 25000 kPa, x2 = 0.2594 | 691.89
